The text below walks through data of US11098010B2 (priority 2017, dated 2021).

Where a name gives a salt, the structure may show the parent alone. Read-outs that look alike come from different tables or passages of the source.

The experiment relates to HBV rcDNA in HepDE19 cells. Kind of experiment: HepDE19 assay with bDNA quantitation of HBV rcDNA. The class given is cell-based, hepatitis B virus (HBV). The protocol: HepDE19 Assay with bDNA Quantitation of HBV rcDNA:
HepDE19 cell culture system is a HepG2 (human hepatocarcinoma) derived cell line that supports HBV DNA replication and cccDNA formation in a tetracycline (Tet)-regulated manner and produces HBV rcDNA and a detectable reporter molecule dependent on the production and maintenance of cccDNA (Guo, et al., 2007, J. Virol. 81:12472-12484).
HepDE19 (50,000 cells/well) were plated in 96-well collagen-coated tissue-culture treated microtiter plates in DMEM/F12 medium supplemented with 10% fetal bovine serum, 1% penicillin-streptomycin and 1 μg/mL tetracycline and incubated in a humidified incubator at 37° C. and 5% CO2 overnight. Next day, the cells were switched to fresh medium without tetracycline and incubated for 4 hours at 37° C. and 5% CO2. The cells were treated with fresh Tet-free medium with compounds at concentrations starting at 25 μM and a serial, ½ log, 8-point, titration series in duplicate. The final DMSO concentration in the assay was 0.5%. The plates were incubated for 7 days in a humidified incubator at 37° C. and 5% CO2. Following a 7 day-incubation, the level of rcDNA present in the inhibitor-treated wells was measured using a Quantigene 2.0 bDNA assay kit (Affymetrix, Santa Clara, Calif.) with HBV specific custom probe set and manufacturers instructions. Concurrently, the effect of compounds on cell viability was assessed using replicate plates, plated at a density of 5,000 cells/well and incubated for 4 days, to determine the ATP content as a measure of cell viability using the cell-titer glo reagent (CTG; Promega Corporation, Madison, Wis.) as per manufacturer's instructions. The plates were read using a Victor luminescence plate reader (PerkinElmer Model 1420 Multilabel counter) and the relative luminescence units (RLU) data generated from each well was calculated as % inhibition of the untreated control wells and analyzed using XL-Fit module in Microsoft Excel to determine EC50 and EC90 (bDNA) and CC50 (CTG) values using a 4-parameter curve fitting algorithm.
Representative compounds of the invention were tested for their abilities to inhibit formation of relaxed circular DNA (rcDNA) in a HepDE19 assay, as described elsewhere herein.

Where [1] appears, read: Hepatitis B virus, HepDE19, 168 h, HepDE19 cells, inhibition of rcDNA formation, 7 day incubation, top concentration 25 μM, read-out: DE-19 bDNA EC50.
The mark [2] stands for this setting: read-out: DE-19 bDNA EC50, HepDE19 cells, inhibition of rcDNA formation, 7 day incubation, top concentration 25 μM.
Setting [3] is: HepDE19 cells, inhibition of rcDNA formation, 7 day incubation, top concentration 25 μM, read-out: DE-19 bDNA EC50.

Consider `O=C(Nc1ccc(F)c(Cl)c1)c1cncc2c1CCC2NS(=O)(=O)C1CC1` (racemic) [Compound 268, N-(3-Chloro-4-fluorophenyl)-7-(cyclopropanesulfonamido)-6,7-dihydro-5H-cyclopenta[c]pyridine-4-carboxamide], for which the EC50 under setting [1] is 8.2 µM.

For the compound `CNC(=O)NC1COc2c(C(=O)Nc3ccc(F)c(F)c3)cccc21` (single isomer, unassigned) [Compound 7, N-(3,4-difluorophenyl)-3-(3-methylureido)-2,3-dihydrobenzofuran-7-carboxamide], under setting [2], the EC50 is 1.9 µM.

As for `CNC(=O)NC1COc2c(C(=O)Nc3ccc(F)c(F)c3)cccc21` (single isomer, unassigned) [Compound 8, N-(3,4-difluorophenyl)-3-(3-methylureido)-2,3-dihydrobenzofuran-7-carboxamide], the EC50 under setting [2] was found to be 23 µM.

Regarding `COC(=O)NC1CSc2c(C(=O)Nc3ccc(F)c(F)c3)cccc21` (single isomer, unassigned) [Compound 30, O-Methyl, N-(7-((3,4-difluorophenyl)carbamoyl)-2,3-dihydrobenzo[b]thiophen-3-yl)carbamate], under setting [2], the EC50 was found to be 1.8 µM.

`COC(=O)NC1CSc2c(C(=O)Nc3ccc(F)c(F)c3)cccc21` (single isomer, unassigned) [Compound 31, O-Methyl, N-(7-((3,4-difluorophenyl)carbamoyl)-2,3-dihydrobenzo[b]thiophen-3-yl)carbamate]: under setting [2], the EC50 is greater than 25 µM.

For `O=C(NC1CSc2c(C(=O)Nc3ccc(F)c(F)c3)cccc21)OCc1ccccn1` (single isomer, unassigned) [Compound 33, O-Pyridin-2-ylmethyl, N-(7-((3,4-difluorophenyl)carbamoyl)-2,3-dihydrobenzo[b]thiophen-3-yl) carbamate hydrochloride], the EC50 under setting [1] worked out at 1.1 µM.

For the compound `O=C(NC1CSc2c(C(=O)Nc3ccc(F)c(F)c3)cccc21)OCc1ccccn1` (single isomer, unassigned) [Compound 34, O-Pyridin-2-ylmethyl, N-(7-((3,4-difluorophenyl)carbamoyl)-2,3-dihydrobenzo[b]thiophen-3-yl)carbamate hydrochloride], the EC50 (read-out: DE-19 bDNA EC50, HepDE19 cells, inhibition of rcDNA formation, 7 day incubation, top concentration 25 μM, hydrochloride) is greater than 25 µM.

`COC(=O)NC1CSc2c(C(=O)Nc3ccc(F)c(Cl)c3)cccc21` (single isomer, unassigned) [Compound 38, O-Methyl, N-(7-((3-chloro-4-fluorophenyl)carbamoyl)-2,3-dihydrobenzo[b]thiophen-3-yl) carbamate]: the EC50 (Hepatitis B virus, HepDE19, 168 h, read-out: DE-19 bDNA EC50 (μM), HepDE19 cells, inhibition of rcDNA formation, 7 day incubation, top concentration 25 μM) was greater than 25 µM.

Turning to `CNC(=O)NC1c2c(F)ccc(C(=O)Nc3ccc(F)c(Cl)c3)c2CC1(C)C` (single isomer, unassigned) [Compound 134, N-(3-Chloro-4-fluorophenyl)-7-fluoro-2,2-dimethyl-1-(3-methylureido)-2,3-dihydro-1H-indene-4-carboxamide], the EC50 under setting [2] amounted to 0.36 µM.

Regarding `CNC(=O)NC1COc2c(C(=O)Nc3ccc(F)c(Cl)c3)ccc(F)c21` (single isomer, unassigned) [Compound 189, N-(3-Chloro-4-fluorophenyl)-4-fluoro-3-(3-methylureido)-2,3-dihydrobenzofuran-7-carboxamide], under setting [2], the EC50 is 0.45 µM.

Consider `CNC(=O)NC1COc2c(C(=O)Nc3ccc(F)c(Cl)c3)ccc(F)c21` (single isomer, unassigned) [Compound 190, N-(3-Chloro-4-fluorophenyl)-4-fluoro-3-(3-methylureido)-2,3-dihydrobenzofuran-7-carboxamide], for which, under setting [2], the EC50 was greater than 25 µM.

Consider `O=C(NC1COc2c(C(=O)Nc3ccc(F)c(Cl)c3)ccc(F)c21)OCc1ccccn1` (single isomer, unassigned) [Compound 191, O-Pyridin-2-ylmethyl, N-(7-((3-chloro-4-fluorophenyl)carbamoyl)-4-fluoro-2,3-dihydrobenzofuran-3-yl)carbamate], for which the EC50 under setting [2] was determined as 18 µM.

For `O=C(NC1COc2c(C(=O)Nc3ccc(F)c(Cl)c3)ccc(F)c21)OCc1ccccn1` (single isomer, unassigned) [Compound 192, O-Pyridin-2-ylmethyl, N-(7-((3-chloro-4-fluorophenyl)carbamoyl)-4-fluoro-2,3-dihydrobenzofuran-3-yl)carbamate], under setting [2], the EC50 was determined as 0.31 µM.

In the case of `CNC(=O)NC1COc2c(C(=O)Nc3ccc(F)c(C)c3)ccc(F)c21` (single isomer, unassigned) [Compound 203, 4-Fluoro-N-(4-fluoro-3-methylphenyl)-3-(3-methylureido)-2,3-dihydrobenzofuran-7-carboxamide], the EC50 under setting [2] was greater than 25 µM.

Consider `CNC(=O)NC1COc2c(C(=O)Nc3ccc(F)c(C)c3)ccc(F)c21` (single isomer, unassigned) [Compound 204, 4-Fluoro-N-(4-fluoro-3-methylphenyl)-3-(3-methylureido)-2,3-dihydrobenzofuran-7-carboxamide], for which the EC50 under setting [2] turned out to be 0.2 µM.

With `Cc1cc(NC(=O)c2ccc(F)c3c2OCC3NC(=O)OCc2ccccn2)ccc1F` (single isomer, unassigned) [Compound 206, O-Pyridin-2-ylmethyl, N-(4-fluoro-7-((4-fluoro-3-methylphenyl)carbamoyl)-2,3-dihydrobenzofuran-3-yl)carbamate], the EC50 under setting [1] was 0.41 µM.

Consider `O=C(Nc1ccc(F)c(Cl)c1)c1ccc(F)c2c1OCC2NS(=O)(=O)C1CC1` (single isomer, unassigned) [Compound 207, N-(3-chloro-4-fluorophenyl)-3-(cyclopropanesulfonamido)-4-fluoro-2,3-dihydrobenzofuran-7-carboxamide], for which, under setting [3], the EC50 amounted to 14 µM.

As to `O=C(Nc1ccc(F)c(Cl)c1)c1ccc(F)c2c1OCC2NS(=O)(=O)C1CC1` (single isomer, unassigned) [Compound 208, N-(3-chloro-4-fluorophenyl)-3-(cyclopropanesulfonamido)-4-fluoro-2,3-dihydrobenzofuran-7-carboxamide], under setting [3], the EC50 came out at 0.11 µM.

For the compound `CNC(=O)NC1c2c(F)ccc(C(=O)Nc3ccc(F)c(Cl)c3)c2CC1(F)F` (single isomer, unassigned) [Compound 211, N-(3-chloro-4-fluorophenyl)-2,2,7-trifluoro-1-(3-methylureido)-2,3-dihydro-1H-indene-4-carboxamide], the EC50 under setting [1] was 6.9 µM.

For `CNC(=O)NC1(C)CCc2c(C(=O)Nc3ccc(F)c(Cl)c3)ccc(F)c21` (single isomer, unassigned) [Compound 215, N-(3-Chloro-4-fluorophenyl)-7-fluoro-1-methyl-1-(3-methylureido)-2,3-dihydro-1H-indene-4-carboxamide], the EC50 under setting [1] turned out to be 3.8 µM.

On to `CNC(=O)NC1(C)CCc2c(C(=O)Nc3ccc(F)c(Cl)c3)ccc(F)c21` (single isomer, unassigned) [Compound 223, N-(3-chloro-4-fluorophenyl)-7-fluoro-1-methyl-1-(3-methylureido)-2,3-dihydro-1H-indene-4-carboxamide], for which, under setting [3], the EC50 turned out to be 4.52 µM.

With `CNC(=O)NC1c2c(F)ccc(C(=O)Nc3ccc(F)c(Cl)c3)c2CC1(C)C` (single isomer, unassigned) [Compound 249, N-(3-Chloro-4-fluorophenyl)-7-fluoro-2,2-dimethyl-1-(3-methylureido)-2,3-dihydro-1H-indene-4-carboxamide], the EC50 under setting [2] was determined as 13 µM.

`O=C1NC(=O)C2(CCc3c(C(=O)Nc4ccc(F)c(Cl)c4)ccc(F)c32)N1` (single isomer, unassigned) [Compound 257, N-(3-chloro-4-fluoro-phenyl)-7′-fluoro-2,5-dioxo-spiro[imidazolidine-4,1′-indane]-4′-carboxamide]: the EC50 under setting [3] was greater than 25 µM.

Turning to `O=C1NC(=O)C2(CCc3c(C(=O)Nc4ccc(F)c(Cl)c4)ccc(F)c32)N1` (single isomer, unassigned) [Compound 258, N-(3-chloro-4-fluoro-phenyl)-7′-fluoro-2,5-dioxo-spiro [imidazolidine-4,1′-indane]-4′-carboxamide], under setting [3], the EC50 worked out at 0.57 µM.

Take `CN1C(=O)NC2(CCc3c(C(=O)Nc4ccc(F)c(Cl)c4)ccc(F)c32)C1=O` (single isomer, unassigned) [Compound 261, N-(3-chloro-4-fluoro-phenyl)-7′-fluoro-1-methyl-2,5-dioxo-spiro [imidazolidine-4,1′-indane]-4′-carboxamide]: the EC50 under setting [3] was 2.7 µM.
